Consider nine compounds from ChEMBL document CHEMBL1136384, “Design, synthesis and biological evaluation of hetaryl-nucleoside derivatives as inhibitors of chitin synthase” (Bioorg Med Chem Lett, 2003).

Assay [1] in a line: Compound tested for the inhibition of chitin synthase using Saccharomyces cerevisiae cells (X2180 strain).
Assay [2] has as its system Aspergillus fumigatus. Put plainly: Inhibitory activity tested against Aspergillus fumigatus at 256 ug/mL concentration. It is filed as functional.
For assay [3], the system named is Candida albicans. Nature of the assay: Inhibitory activity tested against Candida albicans at 256 ug/mL concentration. Type of assay: functional.
Assay [4] deals with Cryptococcus neoformans. Nature of the assay: Inhibitory activity tested against Cryptococcus neoformans at 256 ug/mL concentration. Type of assay: functional.
The subject of assay [5] is Saccharomyces cerevisiae. Nature of the assay: Inhibitory activity tested against Saccharomyces cerevisiae at 256 ug/mL concentration. Type of assay: functional.

The structures appear in SMILES notation.

As a reminder, the IC50 is the concentration that gives 50% inhibition. A lower IC50 goes with inhibition by little substance. Broadly, the Ki is the equilibrium dissociation constant of an inhibitor or competing ligand from its target. As usually defined, the inhibition is the percentage by which the read-out fell short of the control. Low readings indicate a response near the control, high ones a response far below the control.

In assay [1], `C[C@@H]([C@H](N)C(=O)N[C@H](C(=O)O)[C@H]1O[C@@H](n2ccc(=O)[nH]c2=O)[C@H](O)[C@@H]1O)[C@H](O)c1ccc(O)cn1` [NIKKOMYCIN] came in with an IC50 of 0.34 µM.

`O=c1ccn([C@@H]2O[C@H](CO[C@@H]3O[C@@H](CO)[C@@H](OCc4ccc5ccccc5n4)[C@H](O)[C@@H]3O)[C@@H](O)[C@H]2O)c(=O)[nH]1` yielded an IC50 in assay [1] of 2000 µM.

In assay [1], `O=C(NC[C@@H]1OC(n2ccc(=O)[nH]c2=O)[C@H](O)[C@@H]1O)[C@H](O)[C@@H](O)C(=O)OCc1ccc2ccccc2n1` (stereo partly specified) yielded a concentration for half-maximal inhibition (IC50) of 2000 µM and an inhibition constant (Ki) of 800 µM.

As for `COCOc1ccc(COC(=O)CC(=O)OC[C@H]2OC(n3ccc(=O)[nH]c3=O)[C@H](O)[C@@H]2O)nc1` (stereo partly specified), the IC50 in assay [1] was 10800 µM.

In assay [1], `O=C(NC[C@H]1OC(n2ccc(=O)[nH]c2=O)[C@H](O)[C@@H]1O)[C@H](O)[C@@H](O)C(=O)OCc1ccc(O)cn1` (stereo partly specified) registered a 50% inhibitory concentration (IC50) of 3200 µM.

On to `O=c1ccn([C@@H]2O[C@H](CO[C@@H]3O[C@@H](COCc4ccc5ccccc5n4)[C@@H](O)[C@H](O)[C@@H]3O)[C@@H](O)[C@H]2O)c(=O)[nH]1`, for which the inhibition at 256 µg/mL in assay [2] amounted to 30%; in assay [3] it was 30%; in assay [4] it was 80%. In assay [1], this compound yielded a half-maximal inhibitory concentration (IC50) of 3200 µM. In assay [5], this compound displayed an inhibition of 30%.

As for `C[C@@H]([C@H](N)C(=O)N[C@H](C(=O)O)[C@H]1O[C@@H](n2ccc(=O)[nH]c2=O)[C@H](O)[C@@H]1O)[C@H](O)c1ccc(O)cn1` (stereo in doubt) [NIKKOMYCIN], in assay [1], half-maximal inhibition (IC50) required 0.5 µM and the Ki was found to be 0.34 µM.

Consider `O=C(CC(=O)OC[C@H]1OC(n2ccc(=O)[nH]c2=O)[C@H](O)[C@@H]1O)OCc1ccc(O)cn1` (stereo partly specified), for which half-maximal inhibition in assay [1] (IC50) was put at 2800 µM.

Consider `O=c1ccn([C@@H]2O[C@H](CO[C@@H]3O[C@@H](CO)[C@@H](O)[C@H](OCc4ccc5ccccc5n4)[C@@H]3O)[C@@H](O)[C@H]2O)c(=O)[nH]1`, for which, in assay [1], half-maximal inhibition (IC50) was put at 800 µM and affinity was put at a Ki of 250 µM.
